The results in this text go back to the NIST ThermoML archive (doi:10.1016/j.tca.2012.08.001).

Numbers after ± are expanded uncertainties.

For data set [1] the following is noted: 298.2 K; 101.33 kPa; Liquid; Vibrating tube method.
Data set [2] can be described thus: refractive index (Na D-line) (dimensionless). The conditions noted are these: 298.2 K; 101.33 kPa; Liquid; Standard Abbe refractometry.

As a reminder, the mass density is the mass of a sample divided by its volume. As a reminder, the refractive index is the speed of light in vacuum divided by its phase velocity in the sample.

On to `CCCCCCCCCCO` [decan-1-ol], for which the mass density in data set [1] is 826.8 ± 0.36 kg/m3. The refractive index in data set [2] is recorded as 1.4344 ± 0.2. The like results for `O=CO` [formic acid] were, in that order, 1219.32 ± 0.61 kg/m3 and 1.3713 ± 0.2. For the compound `O` [water], the refractive index in data set [2] stood at 1.3324 ± 0.2.
